Test results as given in PubChem BioAssay (NCI).
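1) Cells in 96-well plates. 2) Compound, 48 h, 5 concentrations. 3) Linear interpolation between surrounding doses. 4) Unreached endpoint = highest concentration. TGI: total growth inhibition.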

Key:
Assay in all cases: NCI anticancer screen, dose series, 48 h
786-0 renal = tested on: 786-0 renal
A498 renal = tested on: A498 renal
A549 NSCLC = tested on: A549 NSCLC
ACHN renal = tested on: ACHN renal
BT-549 breast = tested on: BT-549 breast
CAKI-1 renal = tested on: CAKI-1 renal
CCRF-CEM leukemia = tested on: CCRF-CEM leukemia
COLO 205 colon = tested on: COLO 205 colon
DU-145 prostate = tested on: DU-145 prostate
EKVX NSCLC = tested on: EKVX NSCLC
HCC-2998 colon = tested on: HCC-2998 colon
HCT-116 colon = tested on: HCT-116 colon
HCT-15 colon = tested on: HCT-15 colon
HL-60(TB) leukemia = tested on: HL-60(TB) leukemia
HOP-62 NSCLC = tested on: HOP-62 NSCLC
HOP-92 NSCLC = tested on: HOP-92 NSCLC
HS 578T breast = tested on: HS 578T breast
HT29 colon = tested on: HT29 colon
IGROV1 ovarian = tested on: IGROV1 ovarian
K-562 leukemia = tested on: K-562 leukemia
KM12 colon = tested on: KM12 colon
LOX IMVI melanoma = tested on: LOX IMVI melanoma
M14 melanoma = tested on: M14 melanoma
MCF7 breast = tested on: MCF7 breast
MDA-MB-231 breast = tested on: MDA-MB-231 breast
MDA-MB-435 = tested on: MDA-MB-435
MDA-N = tested on: MDA-N
MOLT-4 leukemia = tested on: MOLT-4 leukemia
NCI-H226 lung = tested on: NCI-H226 lung
NCI-H23 lung = tested on: NCI-H23 lung
NCI-H460 lung = tested on: NCI-H460 lung
NCI-H522 lung = tested on: NCI-H522 lung
NCI/ADR-RES ovarian = tested on: NCI/ADR-RES ovarian
OVCAR-3 ovarian = tested on: OVCAR-3 ovarian
OVCAR-4 ovarian = tested on: OVCAR-4 ovarian
OVCAR-5 ovarian = tested on: OVCAR-5 ovarian
OVCAR-8 ovarian = tested on: OVCAR-8 ovarian
PC-3 prostate = tested on: PC-3 prostate
RXF 393 renal = tested on: RXF 393 renal
SF-268 CNS = tested on: SF-268 CNS
SF-295 CNS = tested on: SF-295 CNS
SF-539 CNS = tested on: SF-539 CNS
SK-MEL-2 melanoma = tested on: SK-MEL-2 melanoma
SK-MEL-28 melanoma = tested on: SK-MEL-28 melanoma
SK-MEL-5 melanoma = tested on: SK-MEL-5 melanoma
SN12C renal = tested on: SN12C renal
SNB-19 CNS = tested on: SNB-19 CNS
SNB-75 CNS = tested on: SNB-75 CNS
SR leukemia = tested on: SR leukemia
SW-620 colon = tested on: SW-620 colon
T-47D breast = tested on: T-47D breast
TK-10 renal = tested on: TK-10 renal
U251 CNS = tested on: U251 CNS
UACC-257 melanoma = tested on: UACC-257 melanoma
UACC-62 melanoma = tested on: UACC-62 melanoma
UO-31 renal = tested on: UO-31 renal
MALME-3M melanoma = tested on: MALME-3M melanoma
RPMI-8226 leukemia = tested on: RPMI-8226 leukemia
SK-OV-3 ovarian = tested on: SK-OV-3 ovarian

SMILES: CC(C)(C)c1ccc(-n2c3nc(=O)n(-c4ccccc4C(F)(F)F)c(=O)c-3cc3ccccc32)cc1
- TGI (786-0 renal): > 100 µM
- TGI (A498 renal): 76.3 µM
- TGI (A549 NSCLC): > 100 µM
- TGI (ACHN renal): 60 µM
- TGI (BT-549 breast): > 100 µM
- TGI (CAKI-1 renal): 66.8 µM
- TGI (CCRF-CEM leukemia): 41.9 µM
- TGI (COLO 205 colon): 43.7 µM
- TGI (DU-145 prostate): > 100 µM
- TGI (EKVX NSCLC): 64.9 µM
- TGI (HCC-2998 colon): 28.4 µM
- TGI (HCT-116 colon): 25.1 µM
- TGI (HCT-15 colon): 31.3 µM
- TGI (HL-60(TB) leukemia): 36.1 µM
- TGI (HOP-62 NSCLC): 40.3 µM
- TGI (HOP-92 NSCLC): 51.7 µM
- TGI (HS 578T breast): 68.1 µM
- TGI (HT29 colon): 37.5 µM
- TGI (IGROV1 ovarian): > 100 µM
- TGI (K-562 leukemia): 61.7 µM
- TGI (KM12 colon): 37.3 µM
- TGI (LOX IMVI melanoma): 28.6 µM
- TGI (M14 melanoma): 32.3 µM
- TGI (MCF7 breast): 72.9 µM
- TGI (MDA-MB-231 breast): 63 µM
- TGI (MDA-MB-435): 35.6 µM
- TGI (MDA-N): 74.8 µM
- TGI (MOLT-4 leukemia): 53 µM
- TGI (NCI-H226 lung): 60.8 µM
- TGI (NCI-H23 lung): > 100 µM
- TGI (NCI-H460 lung): 16 µM
- TGI (NCI-H522 lung): 45.4 µM
- TGI (NCI/ADR-RES ovarian): 89.8 µM
- TGI (OVCAR-3 ovarian): 31.4 µM
- TGI (OVCAR-4 ovarian): > 100 µM
- TGI (OVCAR-5 ovarian): 55.2 µM
- TGI (OVCAR-8 ovarian): 84.6 µM
- TGI (PC-3 prostate): 51 µM
- TGI (RXF 393 renal): 51.7 µM
- TGI (SF-268 CNS): > 100 µM
- TGI (SF-295 CNS): 60.5 µM
- TGI (SF-539 CNS): 63.4 µM
- TGI (SK-MEL-2 melanoma): 30.8 µM
- TGI (SK-MEL-28 melanoma): 23.5 µM
- TGI (SK-MEL-5 melanoma): 29 µM
- TGI (SN12C renal): 59.1 µM
- TGI (SNB-19 CNS): > 100 µM
- TGI (SNB-75 CNS): 71.3 µM
- TGI (SR leukemia): 43.6 µM
- TGI (SW-620 colon): 62.8 µM
- TGI (T-47D breast): > 100 µM
- TGI (TK-10 renal): > 100 µM
- TGI (U251 CNS): 29.6 µM
- TGI (UACC-257 melanoma): 48 µM
- TGI (UACC-62 melanoma): 33.8 µM
- TGI (UO-31 renal): > 100 µM

SMILES: CCOC(=O)C(C(N)=O)c1nc2cc([N+](=O)[O-])ccc2nc1/C=C(\O)c1ccccc1 (stereo not given)
- TGI (786-0 renal): 25.5 µM
- TGI (A498 renal): 33.2 µM
- TGI (A549 NSCLC): 32.8 µM
- TGI (ACHN renal): 30.7 µM
- TGI (BT-549 breast): 49.9 µM
- TGI (CAKI-1 renal): 52 µM
- TGI (COLO 205 colon): 36.5 µM
- TGI (DU-145 prostate): 31 µM
- TGI (EKVX NSCLC): 76.5 µM
- TGI (HCC-2998 colon): 21.7 µM
- TGI (HCT-116 colon): 32.7 µM
- TGI (HCT-15 colon): 28.4 µM
- TGI (HL-60(TB) leukemia): 26 µM
- TGI (HOP-62 NSCLC): 22.9 µM
- TGI (HOP-92 NSCLC): 39.1 µM
- TGI (HS 578T breast): 51.2 µM
- TGI (HT29 colon): 45.3 µM
- TGI (IGROV1 ovarian): 24.8 µM
- TGI (K-562 leukemia): 13.9 µM
- TGI (KM12 colon): 26.5 µM
- TGI (LOX IMVI melanoma): 28.7 µM
- TGI (M14 melanoma): 34.3 µM
- TGI (MALME-3M melanoma): 36.7 µM
- TGI (MCF7 breast): 24.8 µM
- TGI (MDA-MB-231 breast): 27 µM
- TGI (MDA-MB-435): 31.3 µM
- TGI (MDA-N): 40.4 µM
- TGI (NCI-H226 lung): > 100 µM
- TGI (NCI-H23 lung): 23.7 µM
- TGI (NCI-H460 lung): 26.1 µM
- TGI (NCI-H522 lung): 29.3 µM
- TGI (NCI/ADR-RES ovarian): 34.8 µM
- TGI (OVCAR-3 ovarian): 22 µM
- TGI (OVCAR-4 ovarian): 34.7 µM
- TGI (OVCAR-5 ovarian): 83.3 µM
- TGI (OVCAR-8 ovarian): 30 µM
- TGI (PC-3 prostate): 30.2 µM
- TGI (RPMI-8226 leukemia): 27.1 µM
- TGI (RXF 393 renal): 39.3 µM
- TGI (SF-268 CNS): 32.1 µM
- TGI (SF-295 CNS): 42.5 µM
- TGI (SF-539 CNS): 30.2 µM
- TGI (SK-MEL-2 melanoma): 30.4 µM
- TGI (SK-MEL-28 melanoma): 86.9 µM
- TGI (SK-MEL-5 melanoma): 30.4 µM
- TGI (SK-OV-3 ovarian): 29 µM
- TGI (SN12C renal): 64.4 µM
- TGI (SNB-19 CNS): 44.5 µM
- TGI (SNB-75 CNS): 43.1 µM
- TGI (SR leukemia): 16.5 µM
- TGI (SW-620 colon): 33.9 µM
- TGI (T-47D breast): 71.8 µM
- TGI (TK-10 renal): 22.9 µM
- TGI (U251 CNS): 23.4 µM
- TGI (UACC-257 melanoma): 40.4 µM
- TGI (UACC-62 melanoma): 34.9 µM
- TGI (UO-31 renal): 36.6 µM

SMILES: CCCCCCC(C)c1ccc2c(c1)C(=O)c1nc3ccncc3c(=O)n1-2 (stereo not given)
- TGI (786-0 renal): > 45.3 µM
- TGI (A498 renal): > 100 µM
- TGI (A549 NSCLC): 35.2 µM
- TGI (ACHN renal): > 29.5 µM
- TGI (BT-549 breast): > 33.8 µM
- TGI (CAKI-1 renal): > 39.6 µM
- TGI (CCRF-CEM leukemia): 5.83 µM
- TGI (COLO 205 colon): > 39.1 µM
- TGI (DU-145 prostate): > 35.1 µM
- TGI (EKVX NSCLC): > 43.4 µM
- TGI (HCC-2998 colon): > 20.5 µM
- TGI (HCT-116 colon): > 36.8 µM
- TGI (HCT-15 colon): > 57.7 µM
- TGI (HL-60(TB) leukemia): 1.18 µM
- TGI (HOP-62 NSCLC): 35.7 µM
- TGI (HOP-92 NSCLC): > 100 µM
- TGI (HS 578T breast): 25.6 µM
- TGI (HT29 colon): 8.78 µM
- TGI (IGROV1 ovarian): > 34.4 µM
- TGI (K-562 leukemia): 2.91 µM
- TGI (KM12 colon): > 30.5 µM
- TGI (M14 melanoma): 11.4 µM
- TGI (MALME-3M melanoma): 0.9 µM
- TGI (MCF7 breast): 32.7 µM
- TGI (MDA-MB-231 breast): > 100 µM
- TGI (MDA-MB-435): 1.17 µM
- TGI (MDA-N): 0.6 µM
- TGI (MOLT-4 leukemia): 4.09 µM
- TGI (NCI-H226 lung): > 32.3 µM
- TGI (NCI-H23 lung): > 31.4 µM
- TGI (NCI-H460 lung): > 34.7 µM
- TGI (NCI/ADR-RES ovarian): 15.7 µM
- TGI (OVCAR-3 ovarian): 9.12 µM
- TGI (OVCAR-4 ovarian): 10.3 µM
- TGI (OVCAR-5 ovarian): 21.7 µM
- TGI (OVCAR-8 ovarian): > 45.2 µM
- TGI (PC-3 prostate): 16.1 µM
- TGI (RPMI-8226 leukemia): 3.97 µM
- TGI (RXF 393 renal): 14.7 µM
- TGI (SF-268 CNS): > 100 µM
- TGI (SF-295 CNS): 20.2 µM
- TGI (SF-539 CNS): 20.3 µM
- TGI (SK-MEL-2 melanoma): 18.7 µM
- TGI (SK-MEL-28 melanoma): > 31.5 µM
- TGI (SK-MEL-5 melanoma): > 25.4 µM
- TGI (SK-OV-3 ovarian): > 100 µM
- TGI (SN12C renal): > 34.9 µM
- TGI (SNB-19 CNS): > 33 µM
- TGI (SNB-75 CNS): > 32.2 µM
- TGI (SR leukemia): 2.57 µM
- TGI (SW-620 colon): > 30.6 µM
- TGI (T-47D breast): > 40.8 µM
- TGI (TK-10 renal): > 65.8 µM
- TGI (U251 CNS): > 45 µM
- TGI (UACC-257 melanoma): > 32.1 µM
- TGI (UACC-62 melanoma): > 36.9 µM
- TGI (UO-31 renal): > 35.7 µM
